Legend:
Format in all cases: biochemical
[1] = target: T1, Nitrile hydratase (PtNHase), alpha subunit (Pseudonocardia thermophila, UniProt Q7SID2+Q7SID3); assay: X-ray crystal structures
T1 sequence (Q7SID2 2-204): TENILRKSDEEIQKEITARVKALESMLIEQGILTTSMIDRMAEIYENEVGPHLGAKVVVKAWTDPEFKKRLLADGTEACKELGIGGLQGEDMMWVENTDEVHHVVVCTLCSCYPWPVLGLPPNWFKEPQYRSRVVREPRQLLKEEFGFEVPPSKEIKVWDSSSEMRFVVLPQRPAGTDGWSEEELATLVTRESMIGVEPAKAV
T1 sequence (Q7SID3 1-233): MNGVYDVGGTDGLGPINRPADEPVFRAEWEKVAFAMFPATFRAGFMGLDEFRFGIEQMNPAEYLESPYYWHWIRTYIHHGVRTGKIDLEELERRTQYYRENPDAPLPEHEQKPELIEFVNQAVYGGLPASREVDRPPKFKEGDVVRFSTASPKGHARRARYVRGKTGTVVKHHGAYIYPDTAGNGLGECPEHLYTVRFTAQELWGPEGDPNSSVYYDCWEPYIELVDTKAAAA

[2] = target: T1, Nitrile hydratase (PtNHase), alpha subunit; assay: X-ray co-crystal structure
[3] = target: T1, Nitrile hydratase (PtNHase), alpha subunit; assay: spectrophotometric hydration kinetics at […] nm

CCCCB(O)O [BuBA, 1-butaneboronic acid]
Ki [1]: 500 ± 100 nM

OB(O)c1ccccc1 [PBA, phenylboronic acid]
Ki [2]: 0.04 ± 0.01 nM

C=CC#N [acrylonitrile]
Km [3]: 800 ± 100 µM

Reference: publication PMC3968781 (Journal of the American Chemical Society, 2014)
